According to ChEMBL document CHEMBL5523759, “Discovery of Novel HDAC3 Inhibitors with PD-L1 Downregulating/Degrading and Antitumor Immune Effects” (J Med Chem, 2024):
Active and inactive are the calls of the source. The calls are words filed in the database; no cut-off is given here.

Legend:
Jurkat = assay: Antiproliferative activity against human Jurkat T cells assessed as reduction in cell viability measured for 48 hrs by CCK-8 assay; type: functional, cell-based
HepG2 = assay: Antiproliferative activity against human HepG2 cells assessed as reduction in cell viability measured for 48 hrs by MTT assay; type: functional, cell-based; conditions: HepG2, 48 h
Raji = assay: Antiproliferative activity against human Raji cells assessed as reduction in cell viability measured for 48 hrs by MTT assay; type: functional, cell-based
Histone deacetylase 3 = Histone deacetylase 3 (Homo sapiens, UniProt O15379); assay: Inhibition of human recombinant HDAC3 using Ac-Leu-Gly-Lys (Ac)-AMC as substrate preincubated with compound for 10 mins followed by substrate addition and measured after 45 mins by TECAN microtiter plate reader analysis
[1] = target: T1, Protein deacetylase HDAC6 (Homo sapiens, UniProt Q9UBN7); assay: Inhibition of human recombinant HDAC6 using Ac-Leu-Gly-Lys (Ac)-AMC as substrate preincubated with compound for 10 mins followed by substrate addition and measured after 45 mins by TECAN microtiter plate reader analysis
T1 sequence (Q9UBN7 whole entry): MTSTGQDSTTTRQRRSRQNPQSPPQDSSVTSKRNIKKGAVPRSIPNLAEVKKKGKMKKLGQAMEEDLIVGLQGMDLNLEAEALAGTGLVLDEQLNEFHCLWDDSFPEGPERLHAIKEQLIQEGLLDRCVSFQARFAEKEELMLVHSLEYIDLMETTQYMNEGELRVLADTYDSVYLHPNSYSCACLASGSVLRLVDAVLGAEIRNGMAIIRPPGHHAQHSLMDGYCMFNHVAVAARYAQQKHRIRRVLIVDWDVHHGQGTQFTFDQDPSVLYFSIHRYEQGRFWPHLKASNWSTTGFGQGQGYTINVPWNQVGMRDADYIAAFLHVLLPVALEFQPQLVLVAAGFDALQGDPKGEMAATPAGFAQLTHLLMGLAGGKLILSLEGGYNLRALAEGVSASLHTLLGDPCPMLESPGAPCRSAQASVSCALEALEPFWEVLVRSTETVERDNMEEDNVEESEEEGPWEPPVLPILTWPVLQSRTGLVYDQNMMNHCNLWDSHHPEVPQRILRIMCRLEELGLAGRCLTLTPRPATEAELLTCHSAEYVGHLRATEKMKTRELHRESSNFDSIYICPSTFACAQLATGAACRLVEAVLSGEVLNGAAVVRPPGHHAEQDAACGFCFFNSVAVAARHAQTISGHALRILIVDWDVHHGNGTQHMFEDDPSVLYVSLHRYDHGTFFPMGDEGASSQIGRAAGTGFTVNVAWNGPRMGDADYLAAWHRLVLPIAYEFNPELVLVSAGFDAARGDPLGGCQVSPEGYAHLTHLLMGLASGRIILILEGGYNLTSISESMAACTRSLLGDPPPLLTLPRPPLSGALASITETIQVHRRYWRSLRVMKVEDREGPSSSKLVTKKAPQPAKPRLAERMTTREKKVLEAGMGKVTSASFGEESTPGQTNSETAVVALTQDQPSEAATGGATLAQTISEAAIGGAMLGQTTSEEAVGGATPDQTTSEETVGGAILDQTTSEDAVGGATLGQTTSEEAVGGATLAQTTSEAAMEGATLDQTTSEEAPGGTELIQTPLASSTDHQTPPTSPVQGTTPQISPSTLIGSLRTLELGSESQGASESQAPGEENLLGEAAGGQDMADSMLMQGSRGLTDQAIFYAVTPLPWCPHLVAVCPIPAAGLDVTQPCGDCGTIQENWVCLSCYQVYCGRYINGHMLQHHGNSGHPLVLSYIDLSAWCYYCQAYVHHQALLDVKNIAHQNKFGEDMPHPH

Histone deacetylase 8 = target: T2, Histone deacetylase 8 (Homo sapiens, UniProt Q9BY41); assay: Inhibition of human recombinant HDAC8 using Ac-Leu-Gly-Lys (Tfa)-AMC as substrate preincubated with compound for 10 mins followed by substrate addition and measured after 45 mins by TECAN microtiter plate reader analysis
T2 sequence (Q9BY41 whole entry): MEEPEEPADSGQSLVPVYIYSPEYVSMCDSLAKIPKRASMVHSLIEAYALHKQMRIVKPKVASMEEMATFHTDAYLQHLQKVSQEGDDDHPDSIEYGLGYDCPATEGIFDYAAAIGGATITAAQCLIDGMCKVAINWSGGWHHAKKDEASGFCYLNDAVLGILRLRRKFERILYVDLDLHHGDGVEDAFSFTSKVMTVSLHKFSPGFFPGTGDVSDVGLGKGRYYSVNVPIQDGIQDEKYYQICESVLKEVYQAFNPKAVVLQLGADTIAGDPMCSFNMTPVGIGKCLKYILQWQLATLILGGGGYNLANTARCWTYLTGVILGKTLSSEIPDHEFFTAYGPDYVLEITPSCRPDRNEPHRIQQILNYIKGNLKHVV

B16-F10 [2] = assay: Cytotoxicity against mouse B16-F10 cells assessed as increase in dead cells at 0.5 to 8 uM measured for 48 hrs by calcein-AM/propidium iodide staining based analysis; type: functional, cell-based; conditions: dose 0.5-8 µM
B16-F10 [3] = assay: Induction of apoptosis in mouse B16-F10 cells at 2 uM measured for 48 hrs by Annexin-V/FITC staining based flow cytometry analysis relative to control; type: functional
[4] = target: T3, Histone deacetylase 8 (Mus musculus) (UniProt Q8VH37); assay: Inhibition of HDAC8 in mouse B16-F10 cells assessed as effect on acetylated SMC3 level at 1 to 2 uM measured for 24 hrs by Western blot analysis; type: cell-based; conditions: dose 1-2 µM
T3 sequence (whole entry): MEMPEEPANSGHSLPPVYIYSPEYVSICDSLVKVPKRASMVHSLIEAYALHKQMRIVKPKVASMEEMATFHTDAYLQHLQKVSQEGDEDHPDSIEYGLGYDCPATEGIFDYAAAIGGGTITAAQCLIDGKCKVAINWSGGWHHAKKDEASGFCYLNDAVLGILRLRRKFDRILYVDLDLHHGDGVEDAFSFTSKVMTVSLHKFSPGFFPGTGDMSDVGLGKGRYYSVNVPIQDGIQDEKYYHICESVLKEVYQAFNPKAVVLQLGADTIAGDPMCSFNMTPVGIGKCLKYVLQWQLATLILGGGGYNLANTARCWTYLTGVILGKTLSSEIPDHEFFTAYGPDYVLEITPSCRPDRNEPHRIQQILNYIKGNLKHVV

HCT-116 = assay: cells; conditions: Homo sapiens, HCT-116, 48 h
Description: Antiproliferative activity against human HCT-116 cells assessed as reduction in cell viability measured for 48 hrs by MTT assay

[5] = Metabolic stability in rat liver microsome assessed as parent compound remaining measured immediately; type: ADME; conditions: liver microsomes, read-out: Stability
[6] = Metabolic stability in mouse liver microsome assessed as half life; type: ADME; conditions: liver microsomes
[7] = Toxicity in C57BL/6 mouse implanted with mouse B16-F10 cells assessed as lung damage at 25 mg/kg, po administered for 9 days by H and E staining based analysis; type: organism-based; conditions: in vivo, 216 h, time 9 day
B16-F10 [8] = assay: Antitumor immunity against mouse B16-F10 cells implanted in C57BL/6 mouse model assessed as increase in CD3+ CD4+ T cells at 25 mg/kg, po administered for 9 days (reference value: 1.50%); type: functional; conditions: time 9 day

Histone deacetylase 3, sequence (O15379 whole entry): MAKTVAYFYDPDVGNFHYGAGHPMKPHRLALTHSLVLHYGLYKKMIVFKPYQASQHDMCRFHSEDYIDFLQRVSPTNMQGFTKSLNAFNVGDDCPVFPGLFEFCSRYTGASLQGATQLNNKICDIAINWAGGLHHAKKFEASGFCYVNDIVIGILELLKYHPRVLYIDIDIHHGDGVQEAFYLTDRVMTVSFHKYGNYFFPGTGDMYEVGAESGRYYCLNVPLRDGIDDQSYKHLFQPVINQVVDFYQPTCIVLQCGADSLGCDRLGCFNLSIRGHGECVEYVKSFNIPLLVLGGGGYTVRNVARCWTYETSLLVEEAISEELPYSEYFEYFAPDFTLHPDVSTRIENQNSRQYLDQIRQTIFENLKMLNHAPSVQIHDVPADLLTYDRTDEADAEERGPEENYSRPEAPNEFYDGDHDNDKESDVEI

IC50 (Histone deacetylase 3) [nM]	Compound	IC50 (Jurkat) [nM]	IC50 (HepG2) [nM]	Activity (Raji)	IC50 [1] [nM]	IC50 (Histone deacetylase 8) [nM]	Activity (B16-F10 [2])	Activity (B16-F10 [3]) [%]	inhibition [4]	IC50 (HCT-116) [nM]	remaining at 0 min [5] [%]	half-life [6] [min]	Activity [7]	Activity (B16-F10 [8]) [%]
66	Nc1ccccc1NC(=O)c1ccc(-c2ncc(CNc3ccccc3)s2)cc1	140	960	Active	> 10000	> 10000	Active	18.77	inactive	1570	–	–	–	–
–	CCCNNC(=O)c1ccc(CNC(=O)c2ncc(CNc3ccccc3)s2)cc1	90	240	Active	> 10000	> 10000	Active	61.84	inactive	430	100	9.69	Non-Toxic	4.16
